Results taken from ChEMBL document CHEMBL4609984, “Design, synthesis and biological evaluation of imidazole and oxazole fragments as HIV-1 integrase-LEDGF/p75 disruptors and inhibitors of microbial pathogens” (Bioorg Med Chem, 2020).
Converted amounts (≈) assume the structure as drawn. The source made the active and inactive calls. The rule behind the calls is not given here.

Columns and labels:
[1] = molecular target: Human immunodeficiency virus type 1 integrase (Human immunodeficiency virus 1) (UniProt Q7ZJM1); assay: Inhibition of HIV-1 integrase assessed as inhibition of interaction of HIV-1 IN with LEDGF/p75 (unknown origin) at 10 uM preincubated with enzyme for 30 mins followed by further incubation with LEDGF/p75 for 1 hr by Alphascreen assay relative to control
[2] = test system: MT4; assay: Cytotoxicity against human MT4 cells assessed as reduction in cell viability at 10 uM incubated for 5 days by MTS assay; type: cell-based; conditions: mt4, 120 h
[3] = test system: Candida tropicalis; assay: Antimicrobial activity against Candida tropicalis ATCC 750 assessed as reduction in fungal growth incubated for 48 hrs by INT dye based assay; type: functional
[4] = test system: Human immunodeficiency virus 1; assay: Antiviral activity against HIV-1 NL4-3 infected in human MT4 cells assessed as reduction in p24 gag protein incubated for 5 days by ELISA; type: functional, organism-based; conditions: Human immunodeficiency virus 1, NL4-3, MT4, 120 h
[5] = test system: Escherichia coli; assay: Antibacterial activity against Escherichia coli ATCC 8739 assessed as reduction in bacterial growth incubated for 24 hrs by INT dye based assay; type: functional; conditions: ATCC 8739, 24 h
[6] = Cytotoxicity against human MT4 cells assessed as reduction in cell viability incubated for 5 days by MTS assay; type: cell-based
[7] = test system: Pseudomonas aeruginosa; assay: Antibacterial activity against Pseudomonas aeruginosa ATCC 27858 assessed as reduction in bacterial growth incubated for 24 hrs by INT dye based assay; type: functional; conditions: ATCC 27858, 24 h
[8] = molecular target: Human immunodeficiency virus type 1 integrase (Human immunodeficiency virus 1, UniProt Q7ZJM1); assay: Inhibition of HIV-1 integrase assessed as inhibition of interaction of HIV-1 IN with LEDGF/p75 (unknown origin) preincubated with enzyme for 30 mins followed by further incubation with LEDGF/p75 for 1 hr by Alphascreen assay
[9] = test system: Staphylococcus aureus; assay: Antibacterial activity against Staphylococcus aureus ATCC 25923 assessed as reduction in bacterial growth incubated for 24 hrs by INT dye based assay; type: functional; conditions: ATCC 25923, 24 h
[10] = test system: Bacillus cereus; assay: Antibacterial activity against Bacillus cereus ATCC 11779 assessed as reduction in bacterial growth incubated for 24 hrs by INT dye based assay; type: functional; conditions: ATCC 11779, 24 h
[11] = test system: Human immunodeficiency virus 1; assay: Antiviral activity against HIV-1 NL4-3 infected in human MT4 cells assessed as reduction in p24 gag protein at 10 uM incubated for 5 days by ELISA; type: functional, organism-based
[12] = molecular target: Human immunodeficiency virus type 1 integrase (Human immunodeficiency virus 1) (UniProt Q7ZJM1); assay: Inhibition of HIV-1 integrase assessed as inhibition of interaction of HIV-1 IN with LEDGF/p75 (unknown origin) at 10 uM incubated for 1 hr by Alphascreen TruHits counter assay

Sequence of Human immunodeficiency virus type 1 integrase (Human immunodeficiency virus 1) (Q7ZJM1 as listed by the source): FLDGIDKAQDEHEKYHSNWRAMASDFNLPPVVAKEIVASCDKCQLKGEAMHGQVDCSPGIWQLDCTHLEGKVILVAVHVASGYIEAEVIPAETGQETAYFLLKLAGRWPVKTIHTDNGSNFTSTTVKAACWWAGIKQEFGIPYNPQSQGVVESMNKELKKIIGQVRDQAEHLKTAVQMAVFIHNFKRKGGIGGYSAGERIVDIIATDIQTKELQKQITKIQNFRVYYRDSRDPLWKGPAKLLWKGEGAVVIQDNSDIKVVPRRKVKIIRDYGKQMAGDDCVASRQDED
Sequence of Human immunodeficiency virus type 1 integrase (Q7ZJM1 whole entry): as the sequence (Q7ZJM1 as listed by the source) above

c1ccc(-c2cnco2)cc1
inhibition [1]: 31% | Activity [2]: Non-Toxic

NYSTATIN
MIC [3]: 1.25 µg/mL

CC(C)(C)c1ccc(-c2cncn2C2CCCCC2)cc1
EC50 [4]: > 10 µM | MIC [5]: > 250 µg/mL | CC50 at 120 h [6]: 21.8 µM | inhibition [1]: 62% | MIC [7]: > 250 µg/mL | Activity [2]: Non-Toxic | IC50 [8]: 14.6 µM | MIC ([3]; ATCC 750, 48 h): 31.3 µg/mL (≈ 111 µM) | MIC [9]: 62.5 µg/mL (≈ 221 µM) | MIC [10]: 15.6 µg/mL (≈ 55.2 µM) | Activity [11]: inactive | inhibition [12]: Active

COc1ccc(-c2cnco2)c(OC)c1
inhibition [1]: 42% | Activity [2]: Non-Toxic

Cc1ccc(S(=O)(=O)[C@H]2N=CO[C@@H]2c2ccccc2)cc1 (racemic)
inhibition [1]: 34% | Activity [2]: Non-Toxic

Fc1ccc(-c2cncn2Cc2ccccc2)cc1
MIC [5]: > 250 µg/mL | inhibition [1]: 25% | MIC [7]: > 250 µg/mL | Activity [2]: Non-Toxic | MIC ([3]; ATCC 750, 48 h): > 250 µg/mL | MIC [9]: 62.5 µg/mL (≈ 248 µM) | MIC [10]: 125 µg/mL (≈ 495 µM)

c1ccc(Cn2cncc2-c2ccc3c(c2)OCO3)cc1
inhibition [1]: 43% | Activity [2]: Non-Toxic

CCCCn1cncc1-c1ccccc1Cl
inhibition [1]: 37% | Activity [2]: Non-Toxic

COc1ccc(-c2cncn2-c2ccc(Br)cc2)c(OC)c1
EC50 [4]: > 10 µM | CC50 at 120 h [6]: 55.5 µM | inhibition [1]: 52% | Activity [2]: Non-Toxic | IC50 [8]: 7 µM | Activity [11]: inactive | inhibition [12]: Active

Brc1ccc(-n2cncc2-c2ccc3c(c2)OCO3)cc1
inhibition [1]: 48% | Activity [2]: Non-Toxic

c1cc2c(cc1-c1cncn1C1CCCCC1)OCO2
inhibition [1]: 40% | Activity [2]: Non-Toxic

COc1ccc(-c2cncn2C2CC2)c(OC)c1
inhibition [1]: 28% | Activity [2]: Non-Toxic

CCCCn1cncc1-c1ccc([N+](=O)[O-])cc1
inhibition [1]: 27% | Activity [2]: Non-Toxic

CCCCn1cncc1-c1ccc2c(c1)OCCO2
inhibition [1]: 21% | Activity [2]: Non-Toxic

O=[N+]([O-])c1ccccc1-c1cncn1C1CCCCC1
Activity [2]: Non-Toxic

O=C(O)c1cn(C2CC2)c2cc(N3CCNCC3)c(F)cc2c1=O [CIPROFLOXACIN]
MIC [5]: 0.313 µg/mL (≈ 0.945 µM) | MIC [7]: 0.313 µg/mL (≈ 0.945 µM) | MIC [9]: 0.156 µg/mL (≈ 0.471 µM) | MIC [10]: 0.156 µg/mL (≈ 0.471 µM)

O=[N+]([O-])c1ccc(-c2cnco2)cc1
inhibition [1]: 33% | Activity [2]: Non-Toxic

Fc1ccc(-c2cncn2C2CC2)cc1
inhibition [1]: 31% | Activity [2]: Non-Toxic

Cc1ccc(S(=O)(=O)[C@H]2N=CO[C@@H]2c2ccccc2[N+](=O)[O-])cc1 (racemic)
inhibition [1]: 38% | Activity [2]: Non-Toxic

COc1ccc(-c2cncn2C2CCCCC2)c(OC)c1
MIC [5]: > 250 µg/mL | inhibition [1]: 40% | MIC [7]: > 250 µg/mL | Activity [2]: Non-Toxic | MIC ([3]; ATCC 750, 48 h): 125 µg/mL (≈ 436 µM) | MIC [9]: 62.5 µg/mL (≈ 218 µM) | MIC [10]: 250 µg/mL (≈ 873 µM)

CC(C)(C)c1ccc(-c2cnco2)cc1
inhibition [1]: 35% | Activity [2]: Non-Toxic

CCCCn1cncc1-c1ccc(C(C)(C)C)cc1
EC50 [4]: > 10 µM | MIC [5]: 250 µg/mL (≈ 975 µM) | CC50 at 120 h [6]: 23.9 µM | inhibition [1]: 56% | MIC [7]: 250 µg/mL (≈ 975 µM) | Activity [2]: Non-Toxic | IC50 [8]: 22.4 µM | MIC ([3]; ATCC 750, 48 h): 31.3 µg/mL (≈ 122 µM) | MIC [9]: 15.6 µg/mL (≈ 60.8 µM) | MIC [10]: 31.3 µg/mL (≈ 122 µM) | Activity [11]: inactive | inhibition [12]: Active

CCCCn1cncc1-c1ccccc1[N+](=O)[O-]
inhibition [1]: 30% | Activity [2]: Non-Toxic

Fc1ccc(-c2cncn2-c2ccc(Br)cc2)cc1
EC50 [4]: > 10 µM | CC50 at 120 h [6]: 48 µM | inhibition [1]: 52% | Activity [2]: Non-Toxic | IC50 [8]: 25.1 µM | Activity [11]: inactive | inhibition [12]: Active

Fc1ccc(-c2cncn2C2CCCCC2)cc1
inhibition [1]: 45% | Activity [2]: Non-Toxic

COc1ccc(-c2cncn2Cc2ccccc2)c(OC)c1
MIC [5]: > 250 µg/mL | inhibition [1]: 17% | MIC [7]: > 250 µg/mL | Activity [2]: Non-Toxic | MIC ([3]; ATCC 750, 48 h): 250 µg/mL (≈ 849 µM) | MIC [9]: 62.5 µg/mL (≈ 212 µM) | MIC [10]: 125 µg/mL (≈ 425 µM)

CCCCn1cncc1-c1ccc(OC)cc1OC
inhibition [1]: 26% | Activity [2]: Non-Toxic

Clc1ccccc1-c1cncn1C1CCCCC1
inhibition [1]: 31% | Activity [2]: Non-Toxic

Cc1ccc(S(=O)(=O)[C@H]2N=CO[C@@H]2c2ccc3c(c2)OCO3)cc1 (racemic)
inhibition [1]: 33% | Activity [2]: Non-Toxic

CCCCn1cncc1-c1ccc(F)cc1
inhibition [1]: 30% | Activity [2]: Non-Toxic

Clc1ccccc1-c1cnco1
inhibition [1]: 33% | Activity [2]: Non-Toxic

O=[N+]([O-])c1ccccc1-c1cnco1
inhibition [1]: 30% | Activity [2]: Non-Toxic

O=[N+]([O-])c1ccc(-c2cncn2C2CCCCC2)cc1
Activity [2]: Non-Toxic

COc1cccc(-c2cnco2)c1
inhibition [1]: 33% | Activity [2]: Non-Toxic

CCCCn1cncc1-c1ccc2c(c1)OCO2
MIC [5]: > 250 µg/mL | inhibition [1]: 35% | MIC [7]: > 250 µg/mL | Activity [2]: Non-Toxic | MIC [10]: 31.3 µg/mL (≈ 128 µM)

COc1cccc(-c2cncn2C2CCCCC2)c1
EC50 [4]: > 10 µM | MIC [5]: > 250 µg/mL | CC50 at 120 h [6]: 27.7 µM | inhibition [1]: 55% | MIC [7]: > 250 µg/mL | Activity [2]: Non-Toxic | IC50 [8]: 21.9 µM | MIC ([3]; ATCC 750, 48 h): 62.5 µg/mL (≈ 244 µM) | MIC [9]: 62.5 µg/mL (≈ 244 µM) | MIC [10]: 62.5 µg/mL (≈ 244 µM) | Activity [11]: inactive | inhibition [12]: Active

Fc1ccc(-c2cnco2)cc1
inhibition [1]: 23% | Activity [2]: Non-Toxic

CCCCn1cncc1-c1cccc(OC)c1
EC50 [4]: > 10 µM | MIC [5]: 125 µg/mL (≈ 543 µM) | CC50 at 120 h [6]: 29.6 µM | inhibition [1]: 51% | MIC [7]: > 250 µg/mL | Activity [2]: Non-Toxic | IC50 [8]: 30.5 µM | MIC ([3]; ATCC 750, 48 h): 62.5 µg/mL (≈ 271 µM) | MIC [9]: > 250 µg/mL | MIC [10]: 62.5 µg/mL (≈ 271 µM) | Activity [11]: inactive | inhibition [12]: Active

c1ncc(-c2ccc3c(c2)OCO3)o1
inhibition [1]: 35% | Activity [2]: Non-Toxic

COc1cccc(-c2cncn2Cc2ccccc2)c1
inhibition [1]: 21% | Activity [2]: Non-Toxic

COc1cccc(-c2cncn2C2CC2)c1
inhibition [1]: 40% | Activity [2]: Non-Toxic
